# Reference: US20030138429A1, “Compositions and methods for inhibiting metastasis” (priority 2001, published 2003)
# What was measured:
# [1] = tested on: 1-LN cells; assay: In vitro Matrigel invasion assay (modified Boyden chamber); type: cell-based, human
# Procedure: In Vitro Invasion Assay—The invasive activity in vitro was assessed by determining the ability of 1-LN cells to invade Matrigel® [47]. Polycarbonate filters (8-μm pore size; Becton Dickinson, Franklin Lakes, N.J.) were coated with Matrigel (12 μg/filter) and placed in a modified Boyden chamber. Cells (1×10^5) were added to the upper chamber in serum-free RPMI 1640 medium, or medium containing purified Pg 2 glycoforms in the absence and presence of anti-DPP IV, anti-u-PA or anti-MMP-9 IgGs, and incubated for 48 h in a humidified atmosphere. Following incubation, non-invading cells were removed from the upper chamber with a cotton swab, and filters were excised and stained with Cyto-Quik™ (Fisher Scientific, Fair Lawn, N.J.). Cells on the lower surface of the filter were enumerated using an ocular micrometer and counting a minimum of five high-powered fields. Each experiment was performed twice with triplicate samples.
# Effect of Pg on 1-LN Cellular Invasion—Pg enhances the ability of prostate cancer PC-3 and DU-145 cell lines to penetrate the synthetic basement membrane Matrigel® [54]. To determine whether Pg regulates invasion via secretion of MMP-9, 1-LN cells were incubated with different inhibiting antibodies in the presence of purified Pg 2 glycoforms.
# [2] = tested on: 1-LN cells; assay: [Ca2+]i response of 1-LN cells (Fura-2/AM digital imaging microscopy); type: cell-based, human; settings: for [Ca^2+]i Increase: Yes/No; for [Ca2+]i response after binding of glycoform: glycoform 0.1 μM, in words
# Procedure: Measurement of Intracellular Calcium Levels—Cystolic free calcium [Ca^2+]i, was measured by Digital Imaging Microscopy (DIM) using the fluorescent indicator Fura-2/AM as previously described.
# [Ca^2+]i Response to Pg 2 Glycoforms Binding on the Surface of 1-LN Cells—We measured changes in [Ca^2+]i after binding of each individual Pg 2 glycoform to the surface of 1-LN cells. […] Similarly, cells were incubated at 37° C. for 1 h with anti-u-PA or anti-p IgGs (100 μg/ml) which inhibit enzymatic activity prior to addition of the highly sialylated glycoforms (Pgs 2γ, 2δ, and 2ε).
# [3] = target: T1, DPP IV isolated from 1-LN cell membranes (Homo sapiens, UniProt P27487); assay: Solid phase radioligand binding of Pg 2 glycoforms to immobilized DPP IV; settings: for Binding to immobilized DPP IV: DPP IV 1 μg/ml coated on 96-well plates, in words
# T1 construct: DPP IV from 1-LN cell membranes was purified to homogeneity as described under Experimental Procedures; endogenous in cells; host or cells: 1-LN human prostate tumor cells; Membranes were solubilized with Triton X-100; The enzyme was then purified on DEAE-Sepharose, Gly-Leu-Sepharose, concanavalin A-Sepharose and by gel filtration
# Procedure: Purification of DPP IV from 1-LN Cell Membranes—Cells grown in 20 culture flasks (150 cm^2) were detached with 10 mM EDTA in Hanks' balanced salt solution (HBSS) and pelleted by centrifugation. The cell pellet was suspended in 10 ml of 20 mM Hepes, pH 7.2, containing 0.25 M sucrose and 0.5 mg/ml each of the following proteinase inhibitors: antipain-HCl, bestatin, chymostatin, transepoxysuccinyl-L-leucylamido-(4-guanidino)butane (E-64), leupeptin, pepstatin, O-phenanthroline, and aprotinin. Cells were lyzed by sonication on ice (five 10 s bursts with 30 s intervals). All procedures were performed at 4° C. The homogenate was centrifuged at 800×g for 15 min to remove unbroken cells and nuclei, followed by centrifugation of the supernatant at 50,000×g for 1 h. The pellet containing cell membranes was resuspended in 20 mM Tris-HCl, pH 8.0, containing 1% (v/v) Triton X-100 to solubilize membranes and centrifuged again at 50,000×g for 30 min to remove insoluble materials. DPP IV activity in this supernatant and in all the following purification steps was monitored by a chromogenic assay using the DPP IV substrate Gly-Pro-pNA [36]. The enzyme was sequentially purified to homogeneity using DEAE-Sepharose ion exchange chromatography and Gly-Leu-Sepharose affinity chromatography, followed by chromatography on concanavalin A-Sepharose and gel filtration on a Sepharose S-200 column. These steps yielded fully active DPP IV (˜40 μg/1×10^9 cells). […] A sample of the protein was analyzed by matrix-assisted laser desorption ionization-MS, and the obtained mass spectrometric peptide maps (30 peptides) were used to identify DPP IV in the OWL Protein database release 29.6 [38,39].
# Solid Phase Radioligand Binding Studies—To study specific binding of Pg 2 glycoforms to immobilized DPP IV purified from 1-LN cells, 96-well strip plates were coated with DPP IV (1 μg/ml in 0.1 M sodium carbonate, pH 9.6, 200 μl/well, 37° C., 2 h). After coating, plates were washed with 200 μl of 10 mM sodium phosphate, 100 mM NaCl, pH 7.4, containing 0.05% Tween-80 (PBS-Tween) to remove unbound protein. Non-specific sites were blocked by incubating with PBS-Tween containing 2% BSA at room temperature for 1 h. Plates were rinsed twice with 200 μl of PBS-Tween, air dried, and stored at 4° C. For assays, increasing concentrations of ^125I-labeled Pg 2 glycoforms, with or without 50-fold excess of unlabeled ligands, were added to triplicate wells and incubated at 37° C. for 1 h. Following incubation, the supernatants were removed and the plates rinsed three times with 200 μl PBS-Tween. Wells were stripped from the plates and radioactivity measured. Specific binding was calculated by substraction of non-specific binding measured in the presence of unlabeled ligand.
# Binding of Pg 2 Glycoforms to Immobilized DPP IV Isolated from 1-LN Cell Membranes—Once identified as a Pg receptor, DPP IV from 1-LN cell membranes was purified to homogeneity as described under Experimental Procedures. […] A blot binding assay with mAb clone in the Mr˜120,000 size range. […] DPP IV immobilization on cell culture plates and binding assays of Pg 2 glycoforms were performed as described under Experimental Procedures.
# [4] = Serum-Free Medium + glycoform 0.1 μM
# [5] = glycoform 0.1 μM +Anti-DPP IV IgG 50 μg/ml
# [6] = glycoform 0.1 μM +Anti-MMP-9 IgG 20 μg/ml
# [7] = glycoform 0.1 μM +Anti-u-PA IgG 100 μg/ml
# T1 sequence (P27487 whole entry): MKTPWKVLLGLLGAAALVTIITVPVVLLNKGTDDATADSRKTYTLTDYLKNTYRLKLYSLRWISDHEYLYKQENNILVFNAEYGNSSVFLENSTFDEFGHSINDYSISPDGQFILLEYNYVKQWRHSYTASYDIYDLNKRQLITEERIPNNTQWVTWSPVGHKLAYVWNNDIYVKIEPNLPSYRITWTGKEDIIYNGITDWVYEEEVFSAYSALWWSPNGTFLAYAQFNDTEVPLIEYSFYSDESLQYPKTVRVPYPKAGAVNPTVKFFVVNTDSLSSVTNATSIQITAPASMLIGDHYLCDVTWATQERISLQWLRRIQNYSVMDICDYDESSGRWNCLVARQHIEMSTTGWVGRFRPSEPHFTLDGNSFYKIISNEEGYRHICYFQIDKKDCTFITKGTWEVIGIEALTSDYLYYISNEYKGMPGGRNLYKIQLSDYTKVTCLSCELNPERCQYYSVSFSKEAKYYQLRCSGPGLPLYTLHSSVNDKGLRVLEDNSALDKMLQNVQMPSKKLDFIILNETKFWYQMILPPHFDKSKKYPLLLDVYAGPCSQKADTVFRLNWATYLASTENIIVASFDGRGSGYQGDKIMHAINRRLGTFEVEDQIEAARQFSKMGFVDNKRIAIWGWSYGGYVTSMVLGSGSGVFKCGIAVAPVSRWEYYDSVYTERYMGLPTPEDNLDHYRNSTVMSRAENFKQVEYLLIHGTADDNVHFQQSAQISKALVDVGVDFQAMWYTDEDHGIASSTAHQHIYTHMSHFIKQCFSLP
Molecule,"Inhibition of binding of 125I-labeled Pg 2γ, 2δ and 2ε to DPP IV ([3]; glycoforms 0.1 μM each, increasing concentrations of L-lactose)","Relative Invasion (Number of Cells/Field) [1, 4]","Relative Invasion (Number of Cells/Field) [1, 5]","Relative Invasion (Number of Cells/Field) [1, 6]","Relative Invasion (Number of Cells/Field) [1, 7]",[Ca^2+]i Increase [2],[Ca2+]i response after binding of glycoform [2],Binding to immobilized DPP IV [3],Enhancement of cellular invasion ([1]; Matrigel invasion by 1-LN cells)
Pg 2γ: glycoform of human plasminogen type 2 purified from plasma; 2.95 mol sialic acid/mol Pg,–,7.8 ± 1.6 Number of Cells/Field,4.6 ± 2.7 Number of Cells/Field,2.1 ± 1.2 Number of Cells/Field,5.3 ± 2.8 Number of Cells/Field,Yes,elicited a [Ca^2+]i response,bind to this DPP IV in a dose-dependent and saturable manner,–
Pg 2φ: glycoform of human plasminogen type 2 purified from plasma; 13.65 mol sialic acid/mol Pg,–,6.8 ± 1.3 Number of Cells/Field,–,–,–,–,No response,No specific binding,–
Pg 2ε: glycoform of human plasminogen type 2 purified from plasma; 5.34 mol sialic acid/mol Pg,–,46.6 ± 5.4 Number of Cells/Field,3.1 ± 1.6 Number of Cells/Field,1.5 ± 1.0 Number of Cells/Field,2.1 ± 1.3 Number of Cells/Field,Yes,elicited a [Ca^2+]i response,bind to this DPP IV in a dose-dependent and saturable manner,6-7 fold
"OC[C@@H]1O[C@H](O[C@@H]2[C@@H](O)[C@H](O)C(O)O[C@H]2CO)[C@@H](O)[C@H](O)[C@@H]1O (stereo partly drawn) [L-lactose, reference compound]",progressively inhibited,–,–,–,–,–,–,–,–
Pg 2δ: glycoform of human plasminogen type 2 purified from plasma; 5.77 mol sialic acid/mol Pg,–,9.2 ± 2.5 Number of Cells/Field,10.4 ± 3.1 Number of Cells/Field,1.8 ± 1.0 Number of Cells/Field,7.8 ± 2.6 Number of Cells/Field,Yes,elicited a [Ca^2+]i response,bind to this DPP IV in a dose-dependent and saturable manner,–
Pg 2α: glycoform of human plasminogen type 2 purified from plasma; 1.3 mol sialic acid/mol Pg,–,13.5 ± 3.4 Number of Cells/Field,–,–,–,No,did not produce any changes,No specific binding,–
Pg 2β: glycoform of human plasminogen type 2 purified from plasma; 2.2 mol sialic acid/mol Pg,–,9.4 ± 2.1 Number of Cells/Field,–,–,–,No,did not produce any changes,No specific binding,–
